Measured values: publication PMC11373198, “In vitro efficacy of next-generation dihydrotriazines and biguanides against babesiosis and malaria parasites” (Antimicrobial Agents and Chemotherapy, 2024)
Entries after “also recorded” stand apart in the source; their conditions may differ. Like-named read-outs stand apart in the source and are kept apart here.

Experiments:
B. duncani DHFR-TS [1] = target: T1, B. duncani DHFR-TS (Babesia duncani, UniProt A0AAD9UQZ8); parameters: method as in PMID 37055610; conditions: recent studies; cited from earlier work
T1 sequence (A0AAD9UQZ8 entry or part of it): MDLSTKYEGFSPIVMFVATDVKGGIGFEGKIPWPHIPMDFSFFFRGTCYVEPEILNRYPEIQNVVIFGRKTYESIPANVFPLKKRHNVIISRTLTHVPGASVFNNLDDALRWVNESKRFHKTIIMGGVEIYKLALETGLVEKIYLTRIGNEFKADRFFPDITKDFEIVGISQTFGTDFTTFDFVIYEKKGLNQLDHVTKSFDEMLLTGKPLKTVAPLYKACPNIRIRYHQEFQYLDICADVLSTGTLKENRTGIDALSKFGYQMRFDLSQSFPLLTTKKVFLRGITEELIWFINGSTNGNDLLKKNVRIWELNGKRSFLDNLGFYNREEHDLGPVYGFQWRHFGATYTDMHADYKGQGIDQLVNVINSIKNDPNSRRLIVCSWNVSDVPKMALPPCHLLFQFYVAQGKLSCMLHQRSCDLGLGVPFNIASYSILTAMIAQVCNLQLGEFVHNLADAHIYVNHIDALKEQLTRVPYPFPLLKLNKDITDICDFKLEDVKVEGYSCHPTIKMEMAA

B. microti DHFR-TS [2] = target: T2, B. microti DHFR-TS (Babesia microti, UniProt A0A1R4AAV1); parameters: method as in PMID 37055610; conditions: recent studies; cited from earlier work
T2 sequence (A0A1R4AAV1 entry or part of it): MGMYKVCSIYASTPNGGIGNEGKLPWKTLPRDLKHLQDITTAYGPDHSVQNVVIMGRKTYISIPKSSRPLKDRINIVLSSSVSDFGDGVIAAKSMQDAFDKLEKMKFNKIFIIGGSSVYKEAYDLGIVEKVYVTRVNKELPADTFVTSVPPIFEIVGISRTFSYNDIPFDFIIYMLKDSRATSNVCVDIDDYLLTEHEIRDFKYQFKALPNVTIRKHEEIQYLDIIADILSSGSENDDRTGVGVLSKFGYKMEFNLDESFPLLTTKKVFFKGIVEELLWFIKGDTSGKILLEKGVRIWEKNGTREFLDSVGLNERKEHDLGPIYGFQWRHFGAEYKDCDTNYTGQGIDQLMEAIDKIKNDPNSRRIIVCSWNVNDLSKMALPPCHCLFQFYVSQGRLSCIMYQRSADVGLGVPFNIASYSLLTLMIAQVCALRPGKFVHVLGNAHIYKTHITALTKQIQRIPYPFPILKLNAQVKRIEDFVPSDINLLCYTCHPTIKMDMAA

B. duncani = test system: B. duncani; parameters: method as in PMID 37055610; conditions: previous studies; read-out: IC50 against B. duncani; cited from earlier work
[3] = in vivo; cited from earlier work
B. duncani (WA-1) [4] = test: In vitro growth inhibition of B. duncani in human erythrocytes (SYBR Green-I); format: cell-based, Babesia duncani; conditions: continuous in vitro culture in human erythrocytes, read-out: IC50 B. duncani
HCT116 = test: Cytotoxicity on human cell line (MTT); format: cell-based; conditions: HCT-116, 72 h
Method: (§1) HeLa, HepG2, HEK293, and HCT116 cell lines were obtained from the American Type Culture Collection (ATCC) and maintained in Dulbecco’s modified Eagle’s medium (DMEM) (Invitrogen 11995–065) containing 25 mM glucose, 1 mM sodium pyruvate, and supplemented with 5 mM HEPES, 10% FBS, and penicillin-streptomycin (50 U/mL penicillin, 50 µg/mL streptomycin). Cells were seeded in a 96-well tissue culture plate (20,000 cells per well) and allowed to adhere for 24 hours, after which they were treated with a 12-step 2-fold serial dilution of each drug starting at 1 mM as the highest final concentration. Cells maintained in the medium supplemented with either 0.1% or 10% DMSO were used as negative and positive vehicle controls, respectively. The plates were incubated at 37 °C for 72 h, after which each well was incubated with 0.5 mg/mL of MTT reagent (MP Chemicals #02102227) for 4 h in the dark at 37 °C. The formazan crystals formed by living cells were solubilized with the addition of 100 µL of DMSO to each well. We measured the OD590nm using a SpectraMax plate reader. From the obtained OD values, percent cell viability was estimated by normalizing to the mean of 10% DMSO wells (set as 100% toxicity) and mean of the vehicle control wells (set as 0% toxicity). Dose-response curves were plotted using GraphPad Prism version 9.1.2.

HEK293 = test: Cytotoxicity on human cell line (MTT); format: cell-based; conditions: 72 h
Method: as §1

HeLa = test: Cytotoxicity on human cell line (MTT); format: cell-based; conditions: 72 h
Method: as §1

HepG2 = test: Cytotoxicity on human cell line (MTT); format: cell-based; conditions: 72 h
Method: as §1

B. duncani DHFR-TS [5] = target: T1, B. duncani DHFR-TS; test: Enzyme inhibition assay: DHFR activity of purified DHFR-TS; format: biochemical
Method: (§2) The inhibition of DHFR activity with selected JPC derivatives was measured as previously described ([59]). Briefly, the purified enzyme (0.1 µM) (supporting information) (Fig. S7) was incubated with increasing concentrations of JPC-2067 or JPC-2056 in a reaction buffer containing 300 µM DHF and 300 µM NADPH. OD340 reduction rate (OD340/min) was measured for further calculation. The % inhibition was calculated using the formula:
(§3) =1−((OD340/min)sample−(OD340/min)negative control)/((OD340/min)positive control−(OD340/min)negative control)
(§4) The IC50 was determined from a sigmoidal dose-response curve using GraphPad Prism version 9.1.2.
(§5) Dihydrofolate reductase-thymidylate synthase (DHFR-TS) gene from B. duncani (BdDHFR-TS BdWA1_001462) and B. microti (BmDHFR-TS BMR1_02g03680) were cloned into pMAL-c4x by GenScript USA Inc. Both enzymes were expressed as fusion proteins with N’-terminal maltose binding protein (MBP) tag. Constructs of pMAL-c4x-BdDHFR-TS and pMAL-c4x-BmDHFR-TS were transformed by heat shock into E. coli BL-21(DE3). E. coli BL-21(DE3) harboring pMAL-c4x-DHFR-TS was grown overnight in 2 ml LB ampicillin (100 µg/mL). Cultures were diluted 100-fold in fresh LB medium with 0.2% glucose and grown to A600 of ~0.5 at 37°C. DHFR-TS expression was induced by the addition of 0.5 mM isopropyl thiogalactoside (IPTG) followed by growth for overnight at 16°C or at room temperature (RT). The cells were harvested by centrifugation (8,000 × g × 10 min, 4°C), washed by resuspension in water, and re-centrifuged. Cells were used directly for purification or kept frozen at -20°C. Prior to enzyme purification, cells were re-suspended in binding buffer containing 25 mM Tris-HCl pH 8, 500 mM NaCl, 0.5% glycerol, and 50mM L-arginine. Cells were supplemented benzonase DNAse (250U/µl) and 3-((3-cholamidopropyl) dimethylammonio)-1-propanesulfonate (CHAPS) (0.002%) and were disrupted by sonication on ice using Omni Sonic Ruptor 400 Ultrasonic Homogenizer (15-sec burst at 70% amplitude, 3 times, with 30-sec cooling intervals). A soluble supernatant was prepared by centrifugation (16,000 × g × 20 min) of the cells sonicate.
(§6) Recombinant DHFR-TSs were purified from the clear cell extract supernatant using amylose resin (NEB), methotrexate-agarose beads, and in some cases size exclusion chromatography (SEC). Briefly, soluble supernatant was incubated with amylose beads in binding buffer with gentle agitation for 1h at 4°C. Following enzyme adsorption, the affinity matrix was transferred to a column and unbound proteins were removed by washing with binding buffer. Purified enzymes were eluted with elution buffer containing 10 mM maltose. Amylose elution fractions were loaded onto MTX-agarose resin and purified DHFR-TS enzymes were eluted using 2 mM dihydrofolic acid (DHF). […]

B. microti DHFR-TS [6] = target: T2, B. microti DHFR-TS; test: as above; format: biochemical
Method: as §2, §3, §4, §5, §6

[7] = test system: human cell lines (HepG2, HCT-116, HEK-293, and HeLa); test: Cytotoxicity on human cell lines, average / overall, and therapeutic index; format: cell-based; conditions: up to 900 µM, HCT-116, HepG2, HEK-293
B. duncani (WA-1) [8] = test: In vivo efficacy in mouse model of lethal B. duncani infection; parameters: species or system C3H/HeJ mice
Method: The finding that JPC-2067 is effective against B. duncani in vitro led us to investigate the activity of its prodrug JPC-2056 in the mouse model of lethal infection (C3H/HeJ mice) ([57]). […] To evaluate the efficacy of JPC-2056, two groups of 5 female mice each were infected with 1 × 10^4 B. duncani-infected erythrocytes and at day 1 post-infection (DPI-1) received either a vehicle (PEG-400) or 30 mg/kg of JPC-2056 administered orally once a day for 10 days. […] However, parasitemia in these mice continued to increase over time reaching peak levels at DPI-12 (Fig. 3A and B). These animals succumbed to lethal B. duncani infection at DPI-13 (Fig. 3A and C).
(§7) Both C3H/HeJ and CB17/SCID mice aged 5–6 weeks (4 to 5 mice per group in each of the studies described herein) were injected intravenously with (1 × 10^4 iRBCs) of B duncani (WA-1) and B. microti (LabS1) parasites, respectively. The infected mice were treated by oral gavage over 10 days (DPI −1 to 10). During the treatment, each mouse received 100 µL of either vehicle (PEG-400) or prodrug JPC-2056 (30 mg/kg). Percent parasitemia was determined by counting at least 3,000 RBCs from Giemsa-stained […] blood smears.

B. microti (LabS1) = test: In vivo efficacy in SCID mouse model of B. microti infection; parameters: species or system CB17/SCID mice
Method: Building on the promising efficacy of JPC-2056 against B. duncani parasites in vivo, we extended our investigation to assess the efficacy of this compound against B. microti (ATCC LabS1) in the SCID (severely combined immunodeficient) mouse model of infection following inoculation with a 1 × 10^4 infected erythrocytes.
as §7

[9] = 0.1 µM enzyme, 300 µM DHF, 300 µM NADPH
[10] = 30 mg/kg orally once a day for 10 days

Structure (SMILES)	IC50 (B. duncani (WA-1) [4]; Babesia duncani, Erythrocyte) [µM]	IC50 (B. duncani (WA-1) [4]) [µM]	IC50 (HCT116) [µM]	IC50 (HEK293) [µM]	IC50 (HeLa) [µM]	IC50 (HepG2) [µM]	cytotoxicity (effect on human cell lines) [7]	also measured
CC1(C)N=C(N)N=C(N)N1OCCCOc1cc(Cl)c(Cl)cc1Cl [WR99210]								inhibition of B. duncani DHFR-TS activity (B. duncani DHFR-TS [1]): inhibits the activity; inhibition of B. microti DHFR-TS activity (B. microti DHFR-TS [2]): inhibits the activity; IC50 (B. duncani): 0.0005 µM; bioavailability [3]: poor bioavailability; gastrointestinal tolerability [3]: caused gastrointestinal complications
CC1(C)NC(=N)NC(=N)N1OCCCOc1ccc(OC(F)(F)F)cc1Cl [JPC-2067]	0.0089 ± 0.002	0.00893	1000	1000	> 900	1150	no discernible effect	EC50 (B. duncani DHFR-TS [5]; [9]): 0.001 µM; EC50 (B. microti DHFR-TS [6]; [9]): 0.0147 µM
CC(C)NC(=N)NC(=N)NOCCCOc1ccc(OC(F)(F)F)cc1Cl [JPC-2056]	0.8694 ± 0.004	0.869	1000	1000	> 900	1000	no discernible effect	inhibitory activity against B. duncani DHFR-TS (B. duncani DHFR-TS [5]; Fig. S3A): no discernible inhibitory activity; inhibitory activity against B. microti DHFR-TS (B. microti DHFR-TS [6]; Fig. S3B): no discernible inhibitory activity; day animals succumbed to lethal infection (B. duncani (WA-1) [8]; [10]): 13 DPI; parasite emergence (B. duncani (WA-1) [8]; [10]): delay in parasite emergence; parasitemia compared to vehicle-treated mice (B. duncani (WA-1) [8]; 30 mg/kg orally once a day for 10 days (DPI-1 to 10)): reduced peak parasitemia; adverse effects (B. microti (LabS1); 30 mg/kg once a day for 10 days): without observable adverse effects; outcome of B. microti infection (B. microti (LabS1); 30 mg/kg once a day for 10 days (DPI-1 to 10)): clearance of infection with no parasites detected up to DPI-45; also recorded: elimination of parasites
